Experimental data as given in US10555987B2, “GHRH agonists for the treatment of ischemic disorders” (UNIVERSITY OF MIAMI, priority 2012, dated 2020).
Marks after values point to notes of the source that are not given here. Non-standard residues stand in square brackets, D forms with d. Residues, ends and D or L forms follow the SMILES beside them. *: point of attachment. Desaminotyrosyl = O=C(CCc1ccc(O)cc1)*; NMeY = CN[C@@H](Cc1ccc(O)cc1)C(=O)O; Nle = CCCC[C@H](N)C(=O)O; Orn = NCCC[C@H](N)C(=O)O; Abu = CC[C@H](N)C(=O)O

Tests used:
GHRH receptor [1] = biological target: T1, GHRH receptor (Homo sapiens, UniProt Q02643); assay: GHRH receptor binding, competition with 125I-labeled JV-1-42, human pituitary membrane homogenates (Table 7); set-up: Normal human pituitaries were purchased from the National Hormone and Peptide Program; tissue National Hormone and Peptide Program (A.F. Parlow, Harbor-UCLA Medical Center, Torrance, Calif.); host or cells: normal human pituitary, membrane fraction; details: for Relative affinity (Binding potency) vs JI-38: JI-38 = 1, Table 7
T1 sequence (Q02643 23-423): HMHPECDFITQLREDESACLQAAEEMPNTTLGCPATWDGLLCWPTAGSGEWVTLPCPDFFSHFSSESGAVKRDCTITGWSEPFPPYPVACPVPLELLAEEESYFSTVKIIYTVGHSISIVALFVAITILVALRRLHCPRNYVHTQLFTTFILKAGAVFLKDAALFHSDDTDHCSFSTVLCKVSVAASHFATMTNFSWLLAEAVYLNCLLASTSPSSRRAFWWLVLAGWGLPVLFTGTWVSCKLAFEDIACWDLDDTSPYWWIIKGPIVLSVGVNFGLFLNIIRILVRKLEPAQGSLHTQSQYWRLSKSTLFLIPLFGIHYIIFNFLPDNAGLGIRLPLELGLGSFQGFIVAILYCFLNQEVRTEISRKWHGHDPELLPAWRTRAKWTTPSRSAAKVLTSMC
From the text: Normal human pituitaries were purchased from the National Hormone and Peptide Program (A.F. Parlow, Los Angeles, County Harbor-UCLA Medical Center, Torrance, Calif.).

GHRH receptor [2] = biological target: T1, GHRH receptor; assay: Receptor binding in vitro, 125I-labeled [His1,Nle27]-hGHRH(1-32)NH2, membrane receptors of human anterior pituitary cells (Table 14); details: for Relative affinity (Binding potency) compared to JI-38: JI-38 = 1; for Relative affinity (Binding potency) compared to hGHRH(1-29): hGHRH(1-29)NH2 = 1
GH release = assay: GH releasing potency in vivo, subcutaneous administration (Example 14, Table 12); set-up: species or system rat; details: s.c.; for Serum GH level at selected time after injection (ng/ml), 0 min / Serum GH level at selected time after injection (ng/ml), 15 min / Serum GH level at selected time after injection (ng/ml), 30 min: male rats, dose 3 μg/kg, mean ± SEM
Description: Male Sprague-Dawley rats, weighing 200-250 g, were purchased from Charles River Laboratory (Wilmington, Mass.) and used for experiments. All animal procedures were approved by the Veterans Affairs Animal Care and Use Committee and were conducted in accordance with additional institutional guidelines as well. Briefly, groups of 5-6 animals were used in each experiment. The rats were anesthetized with 50 mg/kg of sodium pentobarbital (Nembutal, Lundbeck Inc., Deerfield, Ill.). Twenty min after inducing anesthesia, GHRH(1-29)NH2, JI-38, or new analogs were injected into the animals intravenously (i.v.) or subcutaneously (s.c.). The peptides were dissolved in 0.01 M acetic acid to get 1 μg/μl stock solution, and then diluted with 5% mannitol. Control rats received 5% mannitol only. Blood samples were collected from the jugular vein at selected times and were used for serum preparation. Concentrations of GH in rat sera were determined by ELISA. The relative potencies of tested peptides were calculated using GHRH(1-29)NH2 and JI-38 for comparison, whose potency was defined as 1. The equivalent dosage of GHRH(1-29)NH2 to reach the same level of serum growth hormone release after injection of the specific tested peptide was determined from a GHRH(1-29)NH2 standard curve using Origin 6.0 software. […] Serum GH was determined using the rat Growth Hormone ELISA kit (ALPCO Diagnostics, Mill Valley, Calif.) according to the manufacturer's instruction. Absorbance at 405 nm was measured by a Victor 3 Multi-label Counter (Perkin-Elmer, Waltham, Md.).

IC50 (GHRH receptor [1]; 125I-JV-1-42, human pituitary membranes, Table 7) [nM] | Relative affinity (Binding potency) vs JI-38 (GHRH receptor [1]) | Relative affinity (Binding potency) compared to JI-38 (GHRH receptor [2]) | Relative affinity (Binding potency) compared to hGHRH(1-29) (GHRH receptor [2]) | Structure (SMILES) | Serum GH level at selected time after injection (ng/ml), 0 min (GH release) [ng/mL] | Serum GH level at selected time after injection (ng/ml), 15 min (GH release) [ng/mL] | Serum GH level at selected time after injection (ng/ml), 30 min (GH release) [ng/mL] | Relative potency compared to GHRH(1-29), 15 min (GH release) | Relative potency compared to JI-38, 15 min (GH release) | Relative potency compared to GHRH(1-29), 30 min (GH release) | Relative potency compared to JI-38, 30 min (GH release) | GH-releasing potency after s.c. administration (in words) (GH release)
0.55 | 7.91 | 0.53 | 1.21 | CCCC[C@H](NC(=O)[C@@H](NC(=O)[C@H](CC(=O)O)NC(=O)[C@H](CCC(N)=O)NC(=O)[C@H](CC(C)C)NC(=O)[C@H](CC(C)C)NC(=O)[C@H](CCCN)NC(=O)[C@H](CCCNC(=N)N)NC(=O)[C@H](C)NC(=O)[C@H](CO)NC(=O)[C@H](CC(C)C)NC(=O)[C@H](CCC(N)=O)NC(=O)[C@H](CC)NC(=O)[C@H](CC(C)C)NC(=O)[C@@H](NC(=O)[C@H](CCCN)NC(=O)[C@H](CCCNC(=N)N)NC(=O)[C@H](Cc1ccc(O)cc1)NC(=O)[C@H](CO)NC(=O)[C@H](CCC(N)=O)NC(=O)[C@@H](NC(=O)[C@H](Cc1ccccc1)NC(=O)[C@@H](NC(=O)[C@H](C)NC(=O)[C@H](CC(=O)O)NC(=O)[C@@H](C)NC(=O)CCc1ccc(O)cc1)[C@@H](C)CC)[C@@H](C)O)C(C)C)[C@@H](C)CC)C(=O)N[C@@H](CC(=O)O)C(=O)N[C@@H](CCCNC(=N)N)C(=O)NC [Peptide P-27408, [Dat^1, D-Ala^2, Gln^8, Orn^12, Abu^15, Orn^21, Nle^27, Asp^28]hGHRH(1-30)NH—CH3] (Desaminotyrosyl-[dA]DAIFTQSYR[Orn]VL[Abu]QLSAR[Orn]LLQDI[Nle]DR-NHMe) | 37.6 ± 15.5 | 213.3 ± 32.0 | 121.2 ± 8.4 | 57.2 | 0.91 | 100.5 | 0.90 | 
 | 5.24 | 2.14 | 5.98 | CCCC[C@H](NC(=O)[C@@H](NC(=O)[C@H](CC(=O)O)NC(=O)[C@H](CCC(N)=O)NC(=O)[C@H](CC(C)C)NC(=O)[C@H](CC(C)C)NC(=O)[C@H](CCCN)NC(=O)[C@H](CCCNC(=N)N)NC(=O)[C@H](C)NC(=O)[C@H](CO)NC(=O)[C@H](CC(C)C)NC(=O)[C@H](CCC(N)=O)NC(=O)[C@H](CC)NC(=O)[C@H](CC(C)C)NC(=O)[C@@H](NC(=O)[C@H](CCCN)NC(=O)[C@H](CCCNC(=N)N)NC(=O)[C@H](Cc1ccc(O)cc1)NC(=O)[C@H](CO)NC(=O)[C@@H](NC(=O)[C@@H](NC(=O)[C@H](Cc1ccccc1)NC(=O)[C@@H](NC(=O)[C@H](C)NC(=O)[C@H](CC(=O)O)NC(=O)[C@@H](C)NC(=O)[C@H](Cc1ccc(O)cc1)NC)[C@@H](C)CC)[C@@H](C)O)[C@@H](C)O)C(C)C)[C@@H](C)CC)C(=O)N[C@@H](CC(=O)O)C(=O)N[C@@H](CCCNC(=N)N)C(=O)NC [Peptide P-27410, [N—Me-Tyr^1, D-Ala^2, Thr^8, Orn^12, Abu^15, Orn^21, Nle^27, Asp^28]hGHRH (1-29)NH—CH3] (H-[NMeY][dA]DAIFTTSYR[Orn]VL[Abu]QLSAR[Orn]LLQDI[Nle]DR-NHMe) | 34.1 ± 1.2 | 334.0 ± 54.0 | 250.4 ± 28.6 | 102.5 | 1.58 | 363.2 | 3.25* | significantly higher potencies at 30 minutes than at 15 minutes
 | 8.37 | 1.01 | 2.83 | CCCC[C@H](NC(=O)[C@@H](NC(=O)[C@H](CC(=O)O)NC(=O)[C@H](CCC(N)=O)NC(=O)[C@H](CC(C)C)NC(=O)[C@H](CC(C)C)NC(=O)[C@H](CCCN)NC(=O)[C@H](CCCNC(=N)N)NC(=O)[C@H](C)NC(=O)[C@H](CO)NC(=O)[C@H](CC(C)C)NC(=O)[C@H](CCC(N)=O)NC(=O)[C@H](CC)NC(=O)[C@H](CC(C)C)NC(=O)[C@@H](NC(=O)[C@H](CCCN)NC(=O)[C@H](CCCNC(=N)N)NC(=O)[C@H](Cc1ccc(O)cc1)NC(=O)[C@H](CO)NC(=O)[C@H](CCC(N)=O)NC(=O)[C@@H](NC(=O)[C@H](Cc1ccccc1)NC(=O)[C@@H](NC(=O)[C@H](C)NC(=O)[C@H](CC(=O)O)NC(=O)[C@@H](C)NC(=O)[C@H](Cc1ccc(O)cc1)NC)[C@@H](C)CC)[C@@H](C)O)C(C)C)[C@@H](C)CC)C(=O)N[C@@H](CC(=O)O)C(=O)N[C@@H](CCCNC(=N)N)C(=O)NCC [Peptide P-28420, [N—Me-Tyr^1, D-Ala^2, Gln^8, Orn^12, Abu^15, Orn^21, Nle^27, Asp^28]hGHRH(1-29)NH—CH2—CH3] (H-[NMeY][dA]DAIFTQSYR[Orn]VL[Abu]QLSAR[Orn]LLQDI[Nle]DR-NHEt) | 35.5 ± 7.6 | 256.2 ± 46.0 | 126.1 ± 15.8 | 72.6 | 1.15 | 107.8 | 0.96 | 
 | 2.96 | 0.90 | 2.50 | CCCC[C@H](NC(=O)[C@@H](NC(=O)[C@H](CC(=O)O)NC(=O)[C@H](CCC(N)=O)NC(=O)[C@H](CC(C)C)NC(=O)[C@H](CC(C)C)NC(=O)[C@H](CCCN)NC(=O)[C@H](CCCNC(=N)N)NC(=O)[C@H](C)NC(=O)[C@H](CO)NC(=O)[C@H](CC(C)C)NC(=O)[C@H](CCC(N)=O)NC(=O)[C@H](CC)NC(=O)[C@H](CC(C)C)NC(=O)[C@@H](NC(=O)[C@H](CCCN)NC(=O)[C@H](CCCNC(=N)N)NC(=O)[C@H](Cc1ccc(O)cc1)NC(=O)[C@H](CO)NC(=O)[C@H](CC(N)=O)NC(=O)[C@@H](NC(=O)[C@H](Cc1ccccc1)NC(=O)[C@@H](NC(=O)[C@H](C)NC(=O)[C@H](CC(=O)O)NC(=O)[C@@H](C)NC(=O)[C@H](Cc1ccc(O)cc1)NC)[C@@H](C)CC)[C@@H](C)O)C(C)C)[C@@H](C)CC)C(=O)N[C@@H](CC(=O)O)C(=O)N[C@@H](CCCNC(=N)N)C(=O)NCC [Peptide P-28421, [N—Me-Tyr^1, D-Ala^2, Orn^12, Abu^15, Orn^21, Nle^27, Asp^28]hGHRH(1-29) NH—CH2—CH3] (H-[NMeY][dA]DAIFTNSYR[Orn]VL[Abu]QLSAR[Orn]LLQDI[Nle]DR-NHEt) | 44.0 ± 8.9 | 252.4 ± 33.3 | 137.3 ± 17.5 | 71.2 | 1.13 | 125.4 | 1.12 | 
